Experimental data taken from patent US10188710B2, “Regulatory T cell epitope and hepatitis C virus homolog” (Rhode Island Council on Postsecondary Education, priority 2013, dated 2019).
“Also recorded” adds a separate entry of the source.

How the values were obtained:
Type in all cases: cell-based, human
[1] = system: PBMCs derived from HCV-infected (Ab+VL+) patients; assay: CD3+CD4+FoxP3+ cell induction in PBMC cultures from HCV-infected patients (flow cytometry); conditions: 10 μg/ml peptide, 5 days; for increase in CD3+CD4+FoxP3+ cells: PBMCs from Ab+VL+ patients, vs medium alone
From the text: (§1) HCV-seropositive subjects with persistent viremia (Ab^+VL^+), patients who spontaneously resolved infection (Ab^+VL^−) and HCV-seronegative, non-infected (Ab^−VL^−) individuals were recruited from the Rhode Island Adult Corrections Institution (ACI) to participate in this study. Recruitment methods and the population are described elsewhere. The Institutional Review Boards of the Miriam Hospital, Rhode Island Department of Corrections and Office of Human Research Protection approved this study. All HCV infected subjects included in these analyses were infected with HCV genotype 1a or 1b (Versant HCV genotype assay 2, Siemens Healthcare Diagnostics Inc.). Hartford Hospital Transplantation Research Laboratory (Hartford, Conn.) and the Cellular Mediated Immunology Core Laboratory at the University of Rhode Island (Providence, R.I.) performed HLA typing.
Cryopreserved PBMCs were thawed; suspended in HEPES-buffered RPMI1640 medium supplemented with 10% HuAB serum (Valley Biomedical, Winchester, Va.), glutamine, 100 U/ml penicillin and 100 μg/ml streptomycin; and rested overnight at 37° C. in a humidified, CO2 incubator. On the following day, the PBMCs were centrifuged and resuspended in fresh medium containing 5% HuAB serum; 1×10^6 cells/nil were transferred to deep, flat-bottom, non-treated 48-well plates. The peptide sequence indicated in the text was added (10 μg/ml final concentration) and the cells were incubated for 5 days. PBMCs cultured in the presence of medium with 0.1% DMSO served as a negative control. Half the spent medium was replaced on day 3. The cells were collected for analysis on day 5.
The cells collected after 5 days incubation were quantified and characterized in accordance with methods we described previously. Dye-conjugated mouse monoclonal antibodies specific for the following determinants were purchased from BioLegend (San Diego, Calif.) and used: CD3, CD4 (clone OKT4), CD8a (clone HIT8a); CD39 (clone A1), and CD304 (clone 14H4); anti-human CD25 (clone M-A251) and anti-human FoxP3 (clone 236a) were purchased BD Biosciences (San Jose, Calif.). Data were collected on a 4 laser (13 color capability) BD LSRII Flow Cytometer (BD Biosciences, San Jose, Calif.) and analyzed using FlowJo software (Tree Star, Inc., Ashland, Oreg.). All analyses were conducted using the appropriate isotype controls to correct for non-specific staining PBMCs were cultured in the presence of medium alone, 10 μg/ml HCV_G1_p7_794, or 10 μg/ml HCV_G1_NS4b_1941.
The results were analyzed using the SigmaStat statistics program (Aspire Software International). Individual means were compared using a non-paired Student's t test or a Mann-Whitney Rank Sum test.
The cells were collected after 5 days incubation and analyzed by flow cytometry (FIGS. 1A-1C). The CD3+CD4+FoxP3+ cells were further characterized by the expression of CD25 and CD39 (FIG. 1B). The gating scheme and representative analyses are shown.

[2] = system: PBMCs derived from non-infected (Ab-VL-) individuals; assay: CD3+CD4+FoxP3+ cell induction in PBMC cultures from non-infected individuals (flow cytometry); conditions: 10 μg/ml peptide, 5 days
From the text: as §1, with “typing. […]” for “typing.”
The cells collected after 5 days incubation were quantified and characterized in accordance with methods we described previously. […] Data were collected on a 4 laser (13 color capability) BD LSRII Flow Cytometer (BD Biosciences, San Jose, Calif.) and analyzed using FlowJo software (Tree Star, Inc., Ashland, Oreg.). […]
The results were analyzed using the SigmaStat statistics program (Aspire Software International). […]

[3] = system: CFSE-labeled Ab+VL+ PBMCs; assay: CFSE proliferation assay with or without anti-CD3
Description: For proliferation assays, cells rested overnight were labeled with carboxyfluorescein diacetate, succinimidyl ester (CFSE: Life Technologies Corporation, Carlsbad, Calif.) prior to culture in the presence or absence of 30 ng/ml anti-CD3 monoclonal antibody (clone HIT3a; BioLegend, San Diego, Calif.) and 10 μg/ml HCV_G1_p7_794. Cell proliferation was evaluated by flow cytometric analysis according to the protocol provided by Life Technologies in which a loss in fluorescence intensity correlates directly with the extent of replication.
The hallmark of CD3^+CD4^+FoxP3^+ Treg cells is suppressor activity. CSFE-labeled, Ab^+VL^+ PBMCs were cultured with medium alone or medium that contained 30 ng/ml anti-CD3, 10 μg/ml HCV_G1_p7_794 or a combination of anti-CD3 and HCV_G1_p7_794. After 5 days incubation, the cells were collected and proliferation the total (FIG. 3BA) and CD3^+CD4^+ (FIG. 3B) PBMC populations was estimated by flow cytometry. Data were obtained in a single experiment representative of the results obtained for PBMCs derived from six HCV-infected patients.

Sequence | increase in CD3+CD4+FoxP3+ cells [1] | increase in CD3+CD4+FoxP3+ cells [2] | increase in CD3+CD4+FoxP3+ cells ([2]; vs medium alone) | effect on proliferative response to anti-CD3 monoclonal antibody ([3]; 30 ng/ml anti-CD3 plus 10 μg/ml peptide, 5 days, total or CD3+CD4+ population) | effect on proliferation of CD3+CD4+ T cells ([3]; 10 μg/ml peptide alone, no anti-CD3, 5 days) | CD25 and CD39 expression by induced CD3+CD4+FoxP3+ cells ([1]; Ab+VL+ PBMCs) | CD304 (neuropilin) expression by CD4+FoxP3+ cells ([1]; Ab+VL+ PBMCs)
AARVTQILSSL TITQLLKRLHQWI [HCV_G1_NS4b_1941, reference compound] | failed to promote an increase |  |  |  |  |  | 
ISGIQYLAGLSTLPGNPA [HCV_G1_NS4b_1769, reference compound] | failed to elicit a CD3+CD4+FoxP3+ cell response |  |  |  |  |  | 
PLLLLLLSLPPRA [Human p7_794] | significant increase | three | significant increase |  |  |  | 
WPLLLLLLALPQRAYAQ (Hepatitis C virus) [HCV_G1_p7_794] | marked increase |  |  | reproducible, albeit slight, decrease | no effect | expressed both CD25; also recorded: vast majority of these cells expressed CD39 | vast majority of CD4^+FoxP3^+ cells among Ab^+VL^+ PBMCs cultured in the presence of HCV_G1_p7_794 were CD304-negative; also recorded: only a minority
